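Protocol summary: plate cells (96-well), add compound at 5 concentrations, incubate 48 h, interpolate endpoints linearly. At the TGI there is no net growth.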
Experiments:
Test in all cases: DTP human tumour cell line panel, 48 h
[1] = test system: 786-0 renal
[2] = test system: A498 renal
[3] = test system: A549 NSCLC
[4] = test system: ACHN renal
[5] = test system: BT-549 breast
[6] = test system: CAKI-1 renal
[7] = test system: COLO 205 colon
[8] = test system: DU-145 prostate
[9] = test system: EKVX NSCLC
[10] = test system: HCC-2998 colon
[11] = test system: HCT-116 colon
[12] = test system: HCT-15 colon
[13] = test system: HL-60(TB) leukemia
[14] = test system: HOP-62 NSCLC
[15] = test system: HOP-92 NSCLC
[16] = test system: HS 578T breast
[17] = test system: HT29 colon
[18] = test system: IGROV1 ovarian
[19] = test system: K-562 leukemia
[20] = test system: KM12 colon
[21] = test system: LOX IMVI melanoma
[22] = test system: M14 melanoma
[23] = test system: MALME-3M melanoma
[24] = test system: MCF7 breast
[25] = test system: MDA-MB-231 breast
[26] = test system: MDA-MB-435
[27] = test system: MDA-N
[28] = test system: MOLT-4 leukemia
[29] = test system: NCI-H226 lung
[30] = test system: NCI-H23 lung
[31] = test system: NCI-H460 lung
[32] = test system: NCI-H522 lung
[33] = test system: NCI/ADR-RES ovarian
[34] = test system: OVCAR-3 ovarian
[35] = test system: OVCAR-4 ovarian
[36] = test system: OVCAR-5 ovarian
[37] = test system: OVCAR-8 ovarian
[38] = test system: PC-3 prostate
[39] = test system: RPMI-8226 leukemia
[40] = test system: RXF 393 renal
[41] = test system: SF-268 CNS
[42] = test system: SF-295 CNS
[43] = test system: SF-539 CNS
[44] = test system: SK-MEL-28 melanoma
[45] = test system: SK-MEL-5 melanoma
[46] = test system: SN12C renal
[47] = test system: SNB-19 CNS
[48] = test system: SNB-75 CNS
[49] = test system: SR leukemia
[50] = test system: SW-620 colon
[51] = test system: T-47D breast
[52] = test system: TK-10 renal
[53] = test system: U251 CNS
[54] = test system: UACC-257 melanoma
[55] = test system: UO-31 renal
[56] = test system: SK-OV-3 ovarian
[57] = test system: UACC-62 melanoma
[58] = test system: CCRF-CEM leukemia
[59] = test system: SK-MEL-2 melanoma

## CO[C@@H]1C[C@H]2[C@@H]3CC[C@H]([C@H](C)CO)[C@@]3(C)CC[C@@H]2[C@@]2(C)CC[C@H]3C[C@]312
[1]
  TGI: > 100 µM
[2]
  TGI: > 100 µM
[3]
  TGI: > 100 µM
[4]
  TGI: > 100 µM
[5]
  TGI: 49.9 µM
[6]
  TGI: > 100 µM
[7]
  TGI: 35.3 µM
[8]
  TGI: > 100 µM
[9]
  TGI: > 100 µM
[10]
  TGI: > 100 µM
[11]
  TGI: > 100 µM
[12]
  TGI: > 100 µM
[13]
  TGI: 47.2 µM
[14]
  TGI: > 100 µM
[15]
  TGI: 63.6 µM
[16]
  TGI: > 100 µM
[17]
  TGI: 40.8 µM
[18]
  TGI: > 100 µM
[19]
  TGI: > 100 µM
[20]
  TGI: 35.9 µM
[21]
  TGI: 46.5 µM
[22]
  TGI: > 100 µM
[23]
  TGI: > 100 µM
[24]
  TGI: 47.8 µM
[25]
  TGI: > 100 µM
[26]
  TGI: > 100 µM
[27]
  TGI: > 100 µM
[28]
  TGI: > 100 µM
[29]
  TGI: > 100 µM
[30]
  TGI: > 100 µM
[31]
  TGI: 74.8 µM
[32]
  TGI: > 100 µM
[33]
  TGI: > 100 µM
[34]
  TGI: > 100 µM
[35]
  TGI: > 100 µM
[36]
  TGI: > 100 µM
[37]
  TGI: > 100 µM
[38]
  TGI: 92.6 µM
[39]
  TGI: 58 µM
[40]
  TGI: > 100 µM
[41]
  TGI: > 100 µM
[42]
  TGI: 85.9 µM
[43]
  TGI: > 100 µM
[44]
  TGI: > 100 µM
[45]
  TGI: 78.1 µM
[46]
  TGI: > 100 µM
[47]
  TGI: > 100 µM
[48]
  TGI: > 100 µM
[49]
  TGI: > 100 µM
[50]
  TGI: > 100 µM
[51]
  TGI: > 100 µM
[52]
  TGI: > 100 µM
[53]
  TGI: 85.4 µM
[54]
  TGI: 86.5 µM
[55]
  TGI: > 100 µM

## COc1cc(C)c2c(c1C=O)Oc1c(c(C)c(O)c3c1C(O)OC3=O)OC2=O (configuration not stated)
[1]
  TGI: > 100 µM
[2]
  TGI: > 100 µM
[3]
  TGI: > 100 µM
[4]
  TGI: > 100 µM
[5]
  TGI: > 100 µM
[6]
  TGI: > 100 µM
[7]
  TGI: > 100 µM
[8]
  TGI: > 100 µM
[9]
  TGI: > 100 µM
[10]
  TGI: 44.5 µM
[11]
  TGI: > 100 µM
[12]
  TGI: 46.4 µM
[13]
  TGI: 48.4 µM
[14]
  TGI: > 100 µM
[15]
  TGI: > 100 µM
[16]
  TGI: > 100 µM
[17]
  TGI: > 100 µM
[18]
  TGI: 60.9 µM
[20]
  TGI: 52.3 µM
[21]
  TGI: > 100 µM
[22]
  TGI: > 100 µM
[23]
  TGI: 52.6 µM
[24]
  TGI: 74 µM
[25]
  TGI: 68.3 µM
[26]
  TGI: > 100 µM
[27]
  TGI: 43.8 µM
[28]
  TGI: 49.5 µM
[29]
  TGI: > 100 µM
[30]
  TGI: 95 µM
[32]
  TGI: 83.8 µM
[33]
  TGI: > 100 µM
[34]
  TGI: > 100 µM
[35]
  TGI: > 100 µM
[36]
  TGI: > 100 µM
[37]
  TGI: > 100 µM
[38]
  TGI: > 100 µM
[39]
  TGI: 49.6 µM
[40]
  TGI: 96.7 µM
[41]
  TGI: 68 µM
[42]
  TGI: > 100 µM
[43]
  TGI: > 100 µM
[44]
  TGI: > 100 µM
[45]
  TGI: 61.5 µM
[56]
  TGI: > 100 µM
[46]
  TGI: > 100 µM
[47]
  TGI: 60.4 µM
[48]
  TGI: > 100 µM
[49]
  TGI: 60.9 µM
[50]
  TGI: > 100 µM
[51]
  TGI: 65.1 µM
[52]
  TGI: > 100 µM
[53]
  TGI: > 100 µM
[54]
  TGI: > 100 µM
[57]
  TGI: 81.7 µM
[55]
  TGI: > 100 µM

## c1cc(-c2ccc(-c3ccc(C4=NCCCN4)cc3)o2)ccc1C1=NCCCN1
[1]
  TGI: > 100 µM
[2]
  TGI: 13.4 µM
[3]
  TGI: > 100 µM
[4]
  TGI: > 100 µM
[5]
  TGI: > 100 µM
[6]
  TGI: > 100 µM
[58]
  TGI: > 100 µM
[7]
  TGI: > 100 µM
[8]
  TGI: > 100 µM
[9]
  TGI: > 100 µM
[10]
  TGI: > 100 µM
[11]
  TGI: > 100 µM
[12]
  TGI: > 100 µM
[13]
  TGI: > 100 µM
[14]
  TGI: > 100 µM
[15]
  TGI: > 100 µM
[16]
  TGI: > 100 µM
[17]
  TGI: > 100 µM
[19]
  TGI: > 100 µM
[20]
  TGI: > 100 µM
[21]
  TGI: > 100 µM
[22]
  TGI: > 100 µM
[23]
  TGI: > 100 µM
[24]
  TGI: > 100 µM
[25]
  TGI: > 100 µM
[26]
  TGI: > 100 µM
[27]
  TGI: > 100 µM
[28]
  TGI: > 100 µM
[29]
  TGI: > 100 µM
[30]
  TGI: > 100 µM
[31]
  TGI: > 100 µM
[32]
  TGI: > 100 µM
[33]
  TGI: > 100 µM
[34]
  TGI: > 100 µM
[35]
  TGI: > 100 µM
[36]
  TGI: > 100 µM
[37]
  TGI: > 100 µM
[38]
  TGI: > 100 µM
[40]
  TGI: > 100 µM
[41]
  TGI: > 100 µM
[42]
  TGI: > 100 µM
[43]
  TGI: > 100 µM
[59]
  TGI: > 100 µM
[44]
  TGI: > 100 µM
[45]
  TGI: > 100 µM
[56]
  TGI: > 100 µM
[46]
  TGI: 95.7 µM
[47]
  TGI: > 100 µM
[48]
  TGI: > 100 µM
[49]
  TGI: > 100 µM
[50]
  TGI: > 100 µM
[51]
  TGI: > 100 µM
[52]
  TGI: > 100 µM
[53]
  TGI: > 100 µM
[54]
  TGI: > 100 µM
[57]
  TGI: > 100 µM
[55]
  TGI: > 100 µM

From PubChem BioAssay (NCI)
